This passage reports IC50 results from US20110098296A1, “Thiazole And Oxazole Kinase Inhibitors” (priority 2007, published 2011).

One experiment has as its system HN5 tumor cells. Description: Method C: Cell Growth Inhibition Assay (CellTiter-Glo), HN5. It counts as cell-based. The following applies: Homo sapiens, 72 h, 3 days, 4-parameter fit. Summed up: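 HT-29 and HN5 were grown in high-glucose DMEM with 10% FBS, SK-MEL-28 in EMEM with nonessential amino acids, sodium pyruvate and 10% FBS, and A375P F11s in RPMI with 10% FBS and sodium pyruvate. Cells (500/well) received 1:3 compound dilutions for 3 days, with CellTiter-Glo readout and 4-parameter IC50.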
For orientation: ATP-based viability assays read luminescence as a measure of living cells.

Another experiment concerns BT474 tumor cells. Briefly: Method C: Cell Growth Inhibition Assay (CellTiter-Glo), BT474. It counts as cell-based. The following applies: Homo sapiens, BT-474, 72 h, 3 days, 4-parameter fit.

On to `COc1cc(Nc2nccc(-c3sc(N)nc3-c3cccc(NC(=O)c4c(F)cccc4F)c3)n2)cc(OC)c1OC` [Example 16, N-[3-(2-Amino-5-{2-[(3,4,5-trimethoxyphenyl)amino]pyrimidiN-4-yl}-1,3-thiazol-4-yl)phenyl]-2,6-difluorobenzamide], for which the IC50 in the experiment on HN5 tumor cells and in the experiment with BT474 tumor cells was below 0.1 µM throughout.
For the compound `Cc1cc(-c2sc(N)nc2-c2cccc(NC(=O)c3c(F)cccc3F)c2)nc(Nc2cccc(F)c2)n1` [Example 48, N-[3-(2-Amino-5-{2-[(3-fluorophenyl)amino]-6-methyl-4-pyrimidinyl}-1,3-thiazol-4-yl)phenyl]-2,6-difluorobenzamide], the half-maximal inhibitory concentration (IC50) in the experiment on HN5 tumor cells and with BT474 tumor cells was above 1 µM in each case.
Turning to `Cc1nc(-c2cccc(NC(=O)c3cc(F)ccc3F)c2)c(-c2ccnc(Nc3ccc(OCCN(C)C)c(Cl)c3)n2)o1` [Example 142], the half-maximal inhibitory concentration (IC50) (usually the concentration that gives 50% inhibition) in the experiment with HN5 tumor cells is 0.1 to 1 µM.
Consider `CCc1nc(-c2cccc(NC(=O)c3c(F)cccc3F)c2)c(-c2ccnc(Nc3cccc(CN4CCCC4)c3)n2)s1` [Example 115, N-{3-[2-Ethyl-5-(2-{[3-(1-pyrrolidinylmethyl)phenyl]amino}-4-pyrimidinyl)-1,3-thiazol-4-yl]phenyl}-2,6-difluorobenzamide], for which the IC50 with HN5 tumor cells and with BT474 tumor cells was 0.1 to 1 µM in each case.
As to `Cc1nc(-c2cccc(NC(=O)c3c(F)cccc3F)c2)c(-c2ccnc(Nc3ccc(OCCN(C)C)c(Cl)c3)n2)s1` [Example 103, N-[3-(5-{2-[(3-Chloro-4-{[2-(dimethylamino)ethyl]oxy}phenyl)amino]-4-pyrimidinyl}-2-methyl-1,3-thiazol-4-yl)phenyl]-2,6-difluorobenzamide], the IC50 with HN5 tumor cells and with BT474 tumor cells was below 0.1 µM each time.
In the case of `Nc1nc(-c2cccc(C(=O)Nc3c(F)cccc3F)c2)c(-c2ccnc(Nc3cccc(CN4CCCC4)c3)n2)s1` [Example 77, 3-[2-Amino-5-(2-{[3-(1-pyrrolidinylmethyl)phenyl]amino}-4-pyrimidinyl)-1,3-thiazol-4-yl]-N-(2,6-difluorophenyl)benzamide], the 50% inhibitory concentration (IC50) in the experiment with HN5 tumor cells and in the experiment on BT474 tumor cells was 0.1 to 1 µM in each case.
In the case of `CCNc1nc(-c2cccc(NC(=O)C3CC3)c2)c(-c2ccnc(Nc3ccc(OCCN4CCCC4)c(Cl)c3)n2)s1` [Example 63, N-{3-[5-{2-[(3-Chloro-4-{[2-(1-pyrrolidinyl)ethyl]oxy}phenyl)amino]-4-pyrimidinyl}-2-(ethylamino)-1,3-thiazol-4-yl]phenyl}cyclopropanecarboxamide], the IC50 in the experiment on HN5 tumor cells and in the experiment on BT474 tumor cells was 0.1 to 1 µM in each case.
The compound `COc1ccc(Nc2nccc(-c3sc(N)nc3-c3cccc(NC(=O)c4c(F)cccc4F)c3)n2)cc1N1CCNCC1` [Example 18, N-[3-(2-Amino-5-{2-[(4-methoxy-3-piperaziN-1-ylphenyl)amino]pyrimidiN-4-yl}-1,3-thiazol-4-yl)phenyl]-2,6-difluorobenzamide] displayed an IC50 in the experiment with BT474 tumor cells of 0.1 to 1 µM.
In the case of `Cc1nc(-c2cccc(NC(=O)c3c(F)cccc3F)c2)c(-c2ccnc(Nc3ccc(OC4CCN(C(=O)OCc5ccccc5)CC4)c(F)c3)n2)s1` [Example 106], the IC50 in the experiment with BT474 tumor cells was above 1 µM.
